The values that follow come from paper PMC12902737 (Biotechnology and Applied Biochemistry, 2025).

Where two headings read alike, the source gives them in different places.

Test [1] addresses ALR2 enzyme (Ovis aries, UniProt A0ACI6S8R2). The experiment in a line: ALR2 enzyme activity / in vitro inhibition (NADPH absorbance decrease at 340 nm, DL-glyceraldehyde substrate). In kind it is biochemical. As for the experimental part: By tracking the shift in absorbance at 340 nm brought on by a decrease in NADPH, ALR2 activity was ascertained. The reaction mixture for ALR2 activity consists of 0.8 M Na‐phosphate buffer (pH = 5.5), NADPH (0.11 mM), DL‐glyceraldehyde (4.7 mM), and enzyme solution [36, 37]. […] Every measurement was taken three times.
The K I values and inhibition types were ascertained using the Lineweaver and Burk curves (Figure 5).

Test [2] deals with ALR2. Details: method as in ref 80 (Racowitz et al.). Conditions: ref 80 (Racowitz et al.); cited from earlier work.
Test [3] relates to ALR2. On the set-up: method as in ref 79 (Sever et al.). Conditions: ref 79 (Sever et al.); cited from earlier work.

In the case of `O=[N+]([O-])c1ccc(-c2ccon2)cc1` [Compound c, 3‐(4‐nitrophenyl) isoxazole], the Inhibition type entry in test [1] (Lineweaver-Burk curves) is recorded as “Competitive”. In the case of `CC(/C=C1\SC(=S)N(CC(=O)O)C1=O)=C\c1ccccc1` [EPR, Epalrestat, reference compound], in test [1], the Inhibition type entry is given as “Noncompetitive”.

For `Clc1ccc(-c2ccon2)cc1` [b, 3‐(4‐chlorophenyl) isoxazole], the Inhibition type entry in test [1] (Lineweaver-Burk curves) was “Competitive”.

On to `Brc1ccc(-c2ccon2)cc1` [d, 3‐(4‐bromophenyl) isoxazole], for which the Inhibition type result in test [1] (Lineweaver-Burk curves) is reported as “Competitive”. Regarding `Fc1ccc(-c2ccon2)cc1` [e, 3‐(4‐fluorophenyl) isoxazole], the Inhibition type entry in test [1] (Lineweaver-Burk curves) is “Competitive”. For the compound `Fc1ccc(-c2ccno2)cc1` [f, 5‐(4‐fluorophenyl) isoxazole], the Inhibition type entry in test [1] (Lineweaver-Burk curves) is reported as “Competitive”. Turning to `Clc1ccc(-c2ccno2)cc1` [g, 5‐(4‐chlorophenyl) isoxazole], the Inhibition type entry in test [1] (Lineweaver-Burk curves) is “Competitive”. As for `COc1ccc(-c2ccno2)cc1` [h, 5‐(4‐methoxyphenyl) isoxazole], the Inhibition type entry in test [1] (Lineweaver-Burk curves) is “Competitive”. As for `O=C(O)Cc1nn(Cc2ccc(Br)cc2F)c(=O)c2ccccc12` [ponalrestat], in test [2], the IC50 was 80 nM.

As to `O=c1c(O)c(-c2ccc(O)c(O)c2)oc2cc(O)cc(O)c12` [quercetin], in test [3], the IC50 was 3230 nM. Take `O=C1NC(=O)[C@@]2(CCOc3ccc(F)cc32)N1` [sorbinil]: in test [2], the concentration for half-maximal inhibition (IC50) is 3420 ± 20 nM.

Turning to Isoxazole, the Inhibition type entry in test [1] (Lineweaver-Burk curves) was “Noncompetitive”. Moreover, affinity in test [1] (mean ± standard error of mean, Lineweaver-Burk curves) was put at a Ki of 89.5 ± 4.68 nM. In addition, the half-inhibitory concentration (IC50) in test [1] (mean ± standard error of mean, from Activity (%) vs compound graphs) came to 43 ± 1.64 nM.

As a reminder, the IC50 is the concentration that gives 50% inhibition. The term Ki denotes the dissociation constant of the complex between target and ligand, obtained from inhibition or displacement. Read a low Ki as higher affinity.
